These results are taken from US20210002723A1, “METHODS FOR ASSESSING RESPONSIVENESS TO ASTHMA TREATMENT BASED ON VNN-1 EXPRESSION AND PROMOTER METHYLATION” (Children's Hospital Medical Center, priority 2014, published 2021).

One test deals with VNN1−/− mice. Kind of test: Experimental asthma model (repeated HDM exposure), response to dexamethasone in VNN1−/− mice. The test is classed as in vivo, mouse. Particulars: dexamethasone 3 mg/kg i.p. last 5 days, mean ± SEM vs HDM-treated group. The procedure:
(§1) The VNN1^−/− mice used in this study were described in Pitari et al., FEBS letters 2000; 483:149-54. Age- and sex-matched wild-type BALB/c mice were purchased from Harlan Laboratories (Indianapolis, Ind.). All mice were housed in a specific pathogen-free environment following routine practice.
(§2) Mice were exposed to intranasal doses of HDM (20 ug in 50 ul saline) or saline (0.9% NaCl, 50 ul; control group) 3 times a week for 3 weeks as previously described 18. Mice were treated with intra-peritoneal dexamethasone (3 mg/kg in dimethyl sulfoxide, (DMSO)) or DMSO (100 ul) for the last 5 days of the 3 week model. Airway hyperresponsiveness (AHR) was assessed 24 hours after the last HDM challenge using a flexiVent system (SCIREQ, Montreal, QC, Canada) as previously described. See, e.g., Brandt et al., J Allergy Clin Immunol., 2013; 132:1194-204 e2. Bronchoalveolar lavage fluid (BALF) was collected, processed, and inflammatory cells were quantified analyzed as previously described. See Brandt et al., 2013.
(§3) For the experimental asthma model results, individual AHR, total BALF cell counts and eosinophil percentage in mice treated with HDM plus dexamethasone were compared to and normalized by the corresponding mean value in the HDM-treated group. The data are presented as means±SEM. Difference between the WT and VNN1^−/− group was tested by non-parametric Mann Whitney test. A p-value<0.05 was considered significant. Percentage reduction was used to present the steroid response results.

The next test deals with WT mice. Description: Experimental asthma model (repeated HDM exposure), response to dexamethasone in wild-type mice. The format is in vivo, mouse (BALB/c). Particulars: dexamethasone 3 mg/kg i.p. last 5 days, mean ± SEM vs HDM-treated group. The procedure:
as §1, §2, §3

For the compound `C[C@@H]1C[C@H]2[C@@H]3CCC4=CC(=O)C=C[C@]4(C)[C@@]3(F)[C@@H](O)C[C@]2(C)[C@@]1(O)C(=O)CO` [Dexamethasone, dexamethasone], the “average percentage reduction of AHR” value in the test on VNN1−/− mice (50 mg/ml methacholine) is on record as 55.2±4.9%; in the test on VNN1−/− mice (100 mg/ml methacholine), 53.3%; in the test with WT mice (50 mg/ml methacholine challenge), 78.1%; with WT mice (100 mg/ml methacholine challenge), 80.2%. Besides, the “reduction in eosinophils (BALF)” value came to 36.1% with VNN1−/− mice and 83.6±3.7% in the test with WT mice. The figures for the “reduction in total BALF cells” value with VNN1−/− mice and in the test on WT mice were 40.9% and 70.0±4.3%, respectively.
